# Data from patent US11116212B2, “Carbonyl containing compounds for controlling and repelling Cimicidae populations” (SemiosBio Technologies Inc., priority 2011, dated 2021).
# Structures can show the parent of a compound that is named as a salt. Where two headings read alike, the source gives them in different places.
# Tested on: bed bugs, Cimex lectularius
# Assay: Bed bug repellency bioassay, glass tube olfactometer arena
# Format: in vivo
# Conditions: for pest or weed control at 5 % strength / pest or weed control at 1 % / pest or weed control at 25 % strength: Cimex lectularius; for pest or weed control at 1 %: 10 uL, 1% v/v in hexane; for % Repellency, At least One Average >50%: best average over 3 replicates for a single time period
# Description: Per individual bioassay, 10 adult or late instar nymph bed bugs, Cimex lectularius, of mixed sex. Bed bugs sourced from wild, field populations and tested within 2 weeks of capture. Subjects were tested one time, only.
# (ii) Olfactometer consisting of a glass tube. Tube ends were plugged to prevent egress of test subjects. Test substrates were placed at opposite ends of the tube. Tube Olfactometer includes a port in the centre for introduction of test subjects. Dimensions of the tube were 15.2 mm in diameter by 304.8 mm long.
# Compounds were either purchased from commercial sources or synthesized using conventional synthetic organic chemistry techniques (see, for example, Examples 5 to 7). Some compounds (014, 058 and 080) were tested in duplicate (one version from commercial sources and one synthesized) and the best performance is reported in the Tables below. Of the tested compounds reported in the Tables below, the following compounds were synthesized: 006, 010, 017, 018, 040, 041 to 043, 045, 046, 048, 049, 058, 067 to 075, 079, 080 to 082, 089 and 090.
# Test compounds consisted of a control and treatment. The treatment consisted of a test compound mixed as a percentage w/w in a suitable solvent. The test compound solvent itself was used as a control. Solvents used were hexane, hexane:methanol, or dichloromethane:methanol.
# (i) Gauze cut to a standard size and folded upon itself to provide harbourage for test subjects.
# (iii) Absorbent polymer “aroma” beads that were given sufficient time to fully absorb test compounds and control solvents.
# In the case of gauze and filter paper substrates, control solvents and test mixtures of known concentrations and volumes were dispensed directly onto substrates using a pipette. For polymer beads, beads were mixed w/w with solvent or test compound in a small glass jar. The jars were occasionally agitated to facilitate soaking of the beads.
# Immediately after the substrates were infused with test compounds and control solvents, test subjects were introduced to the centre of the selected observation arena. […] Only subjects that were in close contact with the treatment or control substrates were recorded. Subjects elsewhere in the arena were not included in repellency calculations. Percentage repellency was calculated based on a modification of Abbott's formula to account for negative repellency (attraction). Specifically: IF(C>=T,(C−T)/C*100,(T−C)/T*−100)
# where C is number of test subjects in contact with control substrate and T is number of test subjects in contact with treatment substrate.
# All average repellency results reported in the table are based on 3 replicates for each reported trial, with each trial involving at least 3 observation periods. The observation periods were short-term (30 min), medium-term (1-2 hours), and long-term (24-48 hours). The “overall average” reported in the table represents the average for 3 replicates for 3 observation periods. […]
# To determine whether compounds could be combined in the repellent compositions, compounds 14 and 35 were each tested at a concentration of 5% (w/w), and as a combination comprising each compound at a concentration of 2.5% (w/w). The formulations were tested as described in Example 1 using the olfactometer configuration.
# [1] = gauze, 50 uL, 5% w/v in hexane, average of 3 replicates x 3 observation periods, read-out: % Repellency (% R), Overall Average
# [2] = gauze, average of 3 replicates x 3 observation periods, read-out: % Repellency (% R), Overall Average
# [3] = gauze, best single observation (one repetition, one time), read-out: % Repellency, At least One Time >50%
# [4] = observation period T1, gauze, read-out: % Repellency T1 (average of 3 repetitions)
# [5] = observation period T2, gauze, read-out: % Repellency T2 (average of 3 repetitions)
# [6] = observation period T3, gauze, read-out: % Repellency T3 (average of 3 repetitions)
# [7] = observation period T1, gauze, 50 uL, 5% w/v in hexane, read-out: % Repellency T1 (average of 3 repetitions)
# [8] = observation period T2, gauze, 50 uL, 5% w/v in hexane, read-out: % Repellency T2 (average of 3 repetitions)
# [9] = observation period T3, gauze, 50 uL, 5% w/v in hexane, read-out: % Repellency T3 (average of 3 repetitions)
# [10] = beads, 20 uL, 25% w/w in hexane, average of 3 replicates x 3 observation periods, read-out: % Repellency (% R), Overall Average
# [11] = observation period T1, beads, 20 uL, 25% w/w in hexane, read-out: % Repellency T1 (average of 3 repetitions)
# [12] = observation period T2, beads, 20 uL, 25% w/w in hexane, read-out: % Repellency T2 (average of 3 repetitions)
# [13] = observation period T3, beads, 20 uL, 25% w/w in hexane, read-out: % Repellency T3 (average of 3 repetitions)
# [14] = beads, 20 uL, 25% w/w in hexane
# [15] = gauze, 50 uL, 5% w/v in hexane, best single observation (one repetition, one time), read-out: % Repellency, At least One Time >50%
compound,measurement,setting,value
"CC(=O)/C=C/C=O [Compound 001, 4-oxo-2-pentenal]",pest or weed control at 5 % strength,[1],57%
"CCCC(=O)/C=C/C=O [Compound 003, 4-oxo-2-heptenal]",pest or weed control at 5 % strength,[1],> 80%
"CCC(=O)/C=C/CO [Compound 006, (E)-6-hydroxyhex-4-en-3-one]",pest or weed control at 1 %,[2],-49%
same,pest or weed control at 1 %,[3],57%
same,pest or weed control at 1 %,[4],-62%
same,pest or weed control at 1 %,[5],-74%
same,pest or weed control at 1 %,[6],-11%
"CCC(=O)OCC=O [Compound 008, 2-oxoethyl propionate]",pest or weed control at 5 % strength,[1],27%
same,pest or weed control at 5 % strength,[7],12%
same,pest or weed control at 5 % strength,[8],53%
same,pest or weed control at 5 % strength,[9],17%
same,"% Repellency, At least One Average >50%","gauze, 50 uL, 5% w/v in hexane",53%
"CCC(=O)COC=O [Compound 010, 2-oxobutyl formate]",pest or weed control at 25 % strength,[10],45%
same,pest or weed control at 25 % strength,[11],85%
same,pest or weed control at 25 % strength,[12],42%
same,pest or weed control at 25 % strength,[13],8%
same,"% Repellency, At least One Average >50%",[14],85%
"CCC(=O)c1ccco1 [Compound 014, 1-(furan-2-yl)propan-1-one]",pest or weed control at 25 % strength,[10],> 80%
same,% R (Overall Average),"Example 2, single compound at 5% (w/w)",71%
"C=CCOC(=O)CC [Compound 017, allyl propionate]",pest or weed control at 1 %,[2],4%
same,pest or weed control at 1 %,[3],90%
same,pest or weed control at 1 %,[4],-20%
same,pest or weed control at 1 %,[5],13%
same,pest or weed control at 1 %,[6],18%
"CCC(=O)NCCO [Compound 018, N-(2-hydroxyethyl) propionamide]",pest or weed control at 25 % strength,[10],50%
same,pest or weed control at 25 % strength,[11],69%
same,pest or weed control at 25 % strength,[12],69%
same,pest or weed control at 25 % strength,[13],11%
same,"% Repellency, At least One Average >50%",[14],69%
"CCCCCCCCCCCC(C)=O [Compound 024, Methyl undecyl ketone (2-tridecanone)]",pest or weed control at 5 % strength,[1],> 80%
"CC(=O)C(C)C(C)C(C)=O (centres unmarked) [Compound 025, 3,4-dimethyl-2,5-hexanedione]",pest or weed control at 25 % strength,[10],77%
"CCCC(=O)CC [Compound 026, 3-Hexanone]",pest or weed control at 5 % strength,[1],15%
same,pest or weed control at 5 % strength,[15],100%
same,pest or weed control at 5 % strength,[7],44%
same,pest or weed control at 5 % strength,[8],37%
same,pest or weed control at 5 % strength,[9],-36%
"CCC(=O)C(=O)CC [Compound 027, 3,4-Hexanedione]",pest or weed control at 5 % strength,"read-out: % Repellency (% R), Overall Average, gauze, 50 uL, 5% w/v in hexane, average of 3 replicates x 3 observation periods",75%
"CCCCCCC(=O)CC [Compound 028, 3-Nonanone]",pest or weed control at 1 %,[2],-10%
same,pest or weed control at 1 %,[3],67%
same,pest or weed control at 1 %,[4],-11%
same,pest or weed control at 1 %,[5],-11%
same,pest or weed control at 1 %,[6],-6%
"C=COC(=O)CC [Compound 031, Vinyl propionate]",pest or weed control at 5 % strength,[1],8%
same,pest or weed control at 5 % strength,[15],100%
same,pest or weed control at 5 % strength,[7],45%
same,pest or weed control at 5 % strength,[8],45%
same,pest or weed control at 5 % strength,[9],-67%
"CCC(=O)NC [Compound 032, N-Methylpropionamide]",pest or weed control at 25 % strength,"read-out: % Repellency (% R), Overall Average, beads, 20 uL, 25% w/w in hexane, average of 3 replicates x 3 observation periods",-9%
same,pest or weed control at 25 % strength,"read-out: % Repellency T1 (average of 3 repetitions), observation period T1, beads, 20 uL, 25% w/w in hexane",39%
same,pest or weed control at 25 % strength,"read-out: % Repellency T2 (average of 3 repetitions), observation period T2, beads, 20 uL, 25% w/w in hexane",-40%
same,pest or weed control at 25 % strength,"read-out: % Repellency T3 (average of 3 repetitions), observation period T3, beads, 20 uL, 25% w/w in hexane",-25%
same,pest or weed control at 25 % strength,"read-out: % Repellency, At least One Time >50%, beads, 20 uL, 25% w/w in hexane, best single observation (one repetition, one time)",100%
"CCC(=O)CC(=O)OC [Compound 034, Methyl 3-oxovalerate]",pest or weed control at 5 % strength,[1],27%
same,pest or weed control at 5 % strength,[7],81%
same,pest or weed control at 5 % strength,[8],94%
same,pest or weed control at 5 % strength,[9],-94%
same,"% Repellency, At least One Average >50%","gauze, 50 uL, 5% w/v in hexane",94%
"CCCCCC=O [Compound 037, hexanal]",pest or weed control at 5 % strength,[1],79%
"CCC/C=C/C=O [Compound 038, trans-2-hexen-1-al]",pest or weed control at 5 % strength,[1],72%
